Data from ChEMBL document CHEMBL1697781, “Assessment of the health effects of chemicals in humans: II. Construction of an adverse effects database for QSAR modeling” (Curr Drug Discov Technol, 2004).

Legend:
Conditions in all cases: human; call rule not given here
[1] = tested on: Hepatotoxicity; test: FDA HLAED, gamma-glutamyl transferase (GGT) increase
[2] = tested on: Hepatotoxicity; test: FDA HLAED, serum glutamic pyruvic transaminase (SGPT) increase
[3] = tested on: Hepatotoxicity; test: FDA HLAED, serum glutamic oxaloacetic transaminase (SGOT) increase
[4] = tested on: Hepatotoxicity; test: FDA HLAED, alkaline phosphatase increase
[5] = tested on: Hepatotoxicity; test: FDA HLAED, lactate dehydrogenase (LDH) increase
[6] = tested on: Hepatotoxicity; test: FDA HLAED, liver enzyme composite activity
Throughout, for GGT Increase - Index Value: reference of the scale not given here.
Throughout, for LDH Increase - Index Value: reference of the scale not given here.

Row | SMILES | GGT Increase - Activity Score [1] | GGT Increase - Index Value [1] | GGT Increase - Number of Reports [1] | SGPT Increase - Activity Score [2] | SGPT Increase - Index Value [2] | SGPT Increase - Number of Reports [2] | SGOT Increase - Activity Score [3] | SGOT Increase - Index Value [3] | SGOT Increase - Number of Reports [3] | Alkaline Phosphatase Increase - Activity Score [4] | Alkaline Phosphatase Increase - Index Value [4] | Alkaline Phosphatase Increase - Number of Reports [4] | LDH Increase - Activity Score [5] | LDH Increase - Index Value [5] | LDH Increase - Number of Reports [5] | Composite Activity - Active [6] | Composite Activity - Marginal [6] | Composite Activity - Score [6] | Composite Activity - Active ([6]; Liver) | Composite Activity - Marginal ([6]; Liver) | other results
1 | CC(C(=O)O)c1ccc(C(=O)c2cccs2)cc1 (stereo not drawn) [SUPROFEN] | Inactive | 0 | < 4 | Inactive | 0 | < 4 | Inactive | 6.1 | < 4 | Inactive | 6.1 | < 4 | Inactive | 0 | < 4 | 0 | 0 | Inactive | – | – | –
2 | CC(C)(C)c1ccc(C(O)CCCN2CCC(C(O)(c3ccccc3)c3ccccc3)CC2)cc1 (stereo not drawn) [TERFENADINE] | Inactive | 0.1 | < 4 | Inactive | 0.7 | >= 4 | Inactive | 0.7 | >= 4 | Inactive | 0.6 | >= 4 | Inactive | 0.2 | < 4 | 0 | 0 | Inactive | – | – | –
3 | NNC(=O)c1ccncc1 [ISONIAZID] | Active | 8 | >= 4 | Active | 34.7 | >= 4 | Active | 38.7 | >= 4 | Active | 12.7 | >= 4 | Active | 10 | >= 4 | 5 | 0 | Active | – | – | –
4 | Nc1ccc(O)c(C(=O)O)c1 [MESALAMINE] | Inactive | 1.5 | >= 4 | Inactive | 1.8 | >= 4 | Inactive | 2.2 | >= 4 | Inactive | 1.3 | >= 4 | Inactive | 1.1 | >= 4 | 0 | 0 | Inactive | – | – | –
5 | NC(N)=Nc1nc(CSCCC(N)=NS(N)(=O)=O)cs1 [FAMOTIDINE] | Inactive | 0.4 | >= 4 | Inactive | 0.7 | >= 4 | Inactive | 0.8 | >= 4 | Inactive | 0.8 | >= 4 | Inactive | 0.4 | >= 4 | – | – | – | 0 | 0 | Composite Activity - Score ([6]; Liver): Inactive
6 | C[C@](N)(Cc1ccc(O)cc1)C(=O)O [METYROSINE] | Inactive | 0 | < 4 | Inactive | 0 | < 4 | Inactive | 0 | < 4 | Inactive | 0 | < 4 | Inactive | 0 | < 4 | – | – | – | 0 | 0 | Composite Activity - Score ([6]; Liver): Inactive
